Measurements: BindingDB's records for doi:10.1016/j.ejmech.2021.113607 (Institute of Medical Biology Pas, 2021)

Target: T1, Adenosine receptor A2b (Homo sapiens, UniProt P29275)
T1 sequence (P29275 whole entry): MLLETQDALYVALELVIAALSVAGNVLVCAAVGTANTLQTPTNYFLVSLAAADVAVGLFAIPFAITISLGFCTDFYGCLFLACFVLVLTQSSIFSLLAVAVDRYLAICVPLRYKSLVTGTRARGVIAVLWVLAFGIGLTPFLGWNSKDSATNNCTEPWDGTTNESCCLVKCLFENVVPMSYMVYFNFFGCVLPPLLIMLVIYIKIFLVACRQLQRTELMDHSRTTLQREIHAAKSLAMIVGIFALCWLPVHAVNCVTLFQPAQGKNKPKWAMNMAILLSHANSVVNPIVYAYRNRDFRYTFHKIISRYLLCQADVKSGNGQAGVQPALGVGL
Test: Displacement of [3H]DPCPX from human adenosine A2B receptor expressed in HEK cell membrane incubated for 30 mins by microplate beta scintillation counting based radioligand inhibition assay

Ki: 3.33 µM
SMILES: CCNC(=O)[C@H]1O[C@@H](n2cnc3c(NCCCCc4ccccc4)ncnc32)[C@H](O)[C@@H]1O
